Assay results reported in patent US12624044B2, “SMARCA degraders and uses thereof” (Kymera Therapeutics, Inc., priority 2019, dated 2026).

How the values were obtained:
Assay type in all cases: cell-based
SMARCA2 [1] = molecular target: T1, SMARCA2 (Homo sapiens, UniProt P51531); assay: MSD SMARCA2 degradation in A549 cell line; conditions: 24 h; for Dmax: A549, A549 cells; for DC50: A549 cells, read-out: SMARCA2 MSD A549 degradation 24 h: Average external-Abs DC50
How it was run: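 A549 cells treated 24 h with compound at final 0.152-1000 nM (3-fold series, DMSO control). Lysates analyzed by MSD immunoassay using anti-SMARCA2/BRM detection and SULFO-TAG secondary antibodies; maximal degradation (Dmax %) reported as letter bins.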

SMARCA4 = molecular target: T2, SMARCA4 (Homo sapiens, UniProt P51532); assay: SMARCA4 Western blot MV4-11 degradation; conditions: 24 h; for Dmax: MV4-11, MV4-11 cells, read-out: SMARCA4 WB MV411 degradation 24 h: Average Dmax %; for DC50: MV4-11 cells, read-out: SMARCA4 WB MV411 degradation 24 h: Average external-Abs DC50
T2 construct: SMARCA2 and SMARCA4 protein degradation in MV4-11 cells; endogenous in cells; host or cells: MV4-11
How it was run: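 MV4-11 cells treated with compound for 24 h, lysed in RIPA with protease/phosphatase inhibitors, and SMARCA2 and SMARCA4 (BRG1) levels assessed by Western blot with β-actin loading control and LI-COR fluorescent read-out. Maximal degradation (Dmax %) after 24 h binned into letter codes.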

SMARCA2 [2] = molecular target: T1, SMARCA2; assay: MSD SMARCA2 degradation in NCI-H1299 cell line (24 h); parameters: HC: NCI-H1299 cells treated with DMSO; host or cells: NCI-H1299; conditions: for Dmax: NCI-H1299, NCI-H1299 cells; for DC50: NCI-H1299 cells, read-out: SMARCA2 MSD H1299 degradation 24 h: External Abs-DC50
How it was run: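 NCI-H1299 cells treated 24 h with a 3-fold, 9-point compound dilution series, then lysed in RIPA with protease inhibitor. SMARCA2 in lysate-coated MSD plates detected with rabbit anti-SMARCA2 (0.3 ug/ml) and SULFO-TAG secondary. Relative SMARCA2 level normalized between DMSO-treated H1299 cells and SMARCA2-negative A2780 cells; Dmax % binned A–D.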

T1 sequence (P51531 whole entry): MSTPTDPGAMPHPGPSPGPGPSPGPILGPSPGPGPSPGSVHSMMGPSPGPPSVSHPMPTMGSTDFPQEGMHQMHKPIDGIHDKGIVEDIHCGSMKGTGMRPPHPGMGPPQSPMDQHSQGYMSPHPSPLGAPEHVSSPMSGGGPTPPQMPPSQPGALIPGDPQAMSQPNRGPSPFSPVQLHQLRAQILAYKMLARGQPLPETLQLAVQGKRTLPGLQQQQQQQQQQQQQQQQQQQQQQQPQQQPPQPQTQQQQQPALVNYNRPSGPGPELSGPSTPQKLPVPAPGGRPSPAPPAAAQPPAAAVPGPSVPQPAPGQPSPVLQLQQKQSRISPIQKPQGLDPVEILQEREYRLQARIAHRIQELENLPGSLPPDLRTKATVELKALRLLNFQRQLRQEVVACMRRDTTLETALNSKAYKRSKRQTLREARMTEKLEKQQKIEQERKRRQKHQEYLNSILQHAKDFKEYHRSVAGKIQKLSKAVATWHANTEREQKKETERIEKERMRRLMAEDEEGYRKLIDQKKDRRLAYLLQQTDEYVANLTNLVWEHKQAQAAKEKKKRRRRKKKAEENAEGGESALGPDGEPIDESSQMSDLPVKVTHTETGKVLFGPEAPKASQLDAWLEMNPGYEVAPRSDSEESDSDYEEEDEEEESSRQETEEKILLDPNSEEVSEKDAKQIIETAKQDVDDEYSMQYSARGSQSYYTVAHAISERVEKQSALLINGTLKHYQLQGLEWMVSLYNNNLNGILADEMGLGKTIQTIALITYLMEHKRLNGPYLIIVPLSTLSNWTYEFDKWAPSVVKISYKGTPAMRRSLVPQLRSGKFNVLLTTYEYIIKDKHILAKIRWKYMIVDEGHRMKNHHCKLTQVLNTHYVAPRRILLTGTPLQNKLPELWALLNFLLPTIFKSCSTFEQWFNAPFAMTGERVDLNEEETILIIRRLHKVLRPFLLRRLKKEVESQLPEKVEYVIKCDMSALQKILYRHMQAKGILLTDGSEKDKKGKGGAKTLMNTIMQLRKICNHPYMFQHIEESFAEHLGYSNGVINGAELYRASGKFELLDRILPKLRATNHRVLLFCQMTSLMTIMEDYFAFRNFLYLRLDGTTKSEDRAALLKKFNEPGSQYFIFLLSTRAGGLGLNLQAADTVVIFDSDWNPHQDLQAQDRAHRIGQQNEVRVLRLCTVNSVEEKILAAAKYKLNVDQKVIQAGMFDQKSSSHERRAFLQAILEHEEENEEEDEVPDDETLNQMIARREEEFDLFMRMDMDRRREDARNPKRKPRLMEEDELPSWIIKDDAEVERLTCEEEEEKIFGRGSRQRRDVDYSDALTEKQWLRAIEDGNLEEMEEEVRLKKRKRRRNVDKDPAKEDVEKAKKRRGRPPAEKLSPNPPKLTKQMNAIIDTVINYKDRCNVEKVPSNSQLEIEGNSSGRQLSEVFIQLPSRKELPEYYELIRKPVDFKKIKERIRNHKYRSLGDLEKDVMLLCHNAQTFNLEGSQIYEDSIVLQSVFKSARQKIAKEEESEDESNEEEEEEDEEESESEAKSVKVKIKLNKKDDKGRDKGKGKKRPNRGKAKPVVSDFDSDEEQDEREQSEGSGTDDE
T2 sequence (P51532 whole entry): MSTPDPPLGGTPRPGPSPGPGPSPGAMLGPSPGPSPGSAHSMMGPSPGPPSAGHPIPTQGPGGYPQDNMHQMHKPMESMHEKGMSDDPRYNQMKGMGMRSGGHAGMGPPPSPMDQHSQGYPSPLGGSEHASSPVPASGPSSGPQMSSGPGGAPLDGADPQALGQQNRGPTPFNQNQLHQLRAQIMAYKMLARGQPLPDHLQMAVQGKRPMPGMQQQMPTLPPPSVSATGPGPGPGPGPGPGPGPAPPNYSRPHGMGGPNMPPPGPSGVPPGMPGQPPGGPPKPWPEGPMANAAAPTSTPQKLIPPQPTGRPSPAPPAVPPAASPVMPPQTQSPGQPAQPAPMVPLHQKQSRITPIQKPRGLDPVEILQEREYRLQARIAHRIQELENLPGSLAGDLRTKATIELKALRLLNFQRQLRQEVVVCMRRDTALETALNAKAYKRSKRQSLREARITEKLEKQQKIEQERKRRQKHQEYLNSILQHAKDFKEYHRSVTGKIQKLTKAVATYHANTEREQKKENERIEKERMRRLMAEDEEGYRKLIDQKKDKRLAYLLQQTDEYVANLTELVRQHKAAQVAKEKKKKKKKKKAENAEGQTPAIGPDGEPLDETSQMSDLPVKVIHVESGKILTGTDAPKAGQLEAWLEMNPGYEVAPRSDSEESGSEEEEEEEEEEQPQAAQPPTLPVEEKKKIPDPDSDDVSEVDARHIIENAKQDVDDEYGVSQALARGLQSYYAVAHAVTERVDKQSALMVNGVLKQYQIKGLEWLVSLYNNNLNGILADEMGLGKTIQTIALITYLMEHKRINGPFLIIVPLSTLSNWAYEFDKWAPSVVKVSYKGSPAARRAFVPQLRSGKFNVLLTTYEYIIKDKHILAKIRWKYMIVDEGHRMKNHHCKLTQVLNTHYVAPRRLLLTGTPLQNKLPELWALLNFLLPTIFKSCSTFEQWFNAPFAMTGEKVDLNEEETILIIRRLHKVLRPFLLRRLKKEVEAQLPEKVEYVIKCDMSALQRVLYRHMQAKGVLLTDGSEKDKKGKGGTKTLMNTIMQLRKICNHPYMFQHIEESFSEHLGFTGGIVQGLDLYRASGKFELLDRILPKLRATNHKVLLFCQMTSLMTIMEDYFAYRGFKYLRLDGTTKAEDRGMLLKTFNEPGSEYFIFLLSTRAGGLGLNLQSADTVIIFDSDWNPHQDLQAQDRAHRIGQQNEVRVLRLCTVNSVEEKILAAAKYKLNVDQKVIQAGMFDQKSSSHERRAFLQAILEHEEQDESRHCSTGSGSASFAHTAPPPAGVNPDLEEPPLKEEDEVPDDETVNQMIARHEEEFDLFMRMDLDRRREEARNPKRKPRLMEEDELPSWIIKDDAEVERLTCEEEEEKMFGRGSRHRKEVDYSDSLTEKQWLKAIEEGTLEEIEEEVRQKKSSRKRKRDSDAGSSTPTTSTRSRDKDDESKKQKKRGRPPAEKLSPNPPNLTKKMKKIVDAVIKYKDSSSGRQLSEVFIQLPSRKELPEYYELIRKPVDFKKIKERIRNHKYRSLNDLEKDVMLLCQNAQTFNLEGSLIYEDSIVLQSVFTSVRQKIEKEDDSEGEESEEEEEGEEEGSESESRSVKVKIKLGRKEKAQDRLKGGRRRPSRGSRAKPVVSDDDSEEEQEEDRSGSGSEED

SMILES	Dmax (SMARCA2 [1]) [%]	DC50 (SMARCA2 [1]) [nM]	Dmax (SMARCA4) [%]	DC50 (SMARCA4) [nM]	Dmax (SMARCA2 [2]) [%]	DC50 (SMARCA2 [2]) [nM]
Cn1c(=O)n(C2CCC(=O)NC2=O)c2ccc(CCCN3CCN(c4cnc(N5C6CCC5CN(c5cc(-c7ccccc7O)nnc5N)C6)nc4)CC3)cc21 (stereo not shown) [I-285]	> 90	< 100	> 90	< 100	> 90	< 100
Cn1c(=O)n(C2CCC(=O)NC2=O)c2ccc(C3CCC(N4CCC(c5cnc(N6C7CCC6CN(c6cc(-c8ccccc8O)nnc6N)C7)nc5)CC4)CC3)cc21 (stereo not shown) [I-290]	> 90	< 100	> 90	< 100	> 90	< 100
Cc1ncsc1-c1ccc(CNC(=O)[C@@H]2C[C@@H](O)CN2C(=O)[C@@H](NC(=O)N2CCC(c3cnc(N4C5CCC4CN(c4cc(-c6ccccc6O)nnc4N)C5)nc3)CC2)C(C)(C)C)cc1 [I-448]	> 90	100 to 500	> 90	< 100	70 to 90	100 to 500
Cc1ncsc1-c1ccc(CNC(=O)[C@@H]2C[C@@H](O)CN2C(=O)[C@@H](NC(=O)CCN2CCC(c3cnc(N4C5CCC4CN(c4cc(-c6ccccc6O)nnc4N)C5)nc3)CC2)C(C)(C)C)cc1 [I-449]	< 50	> 1000	< 50	100 to 500	< 50	100 to 500
Cc1ncsc1-c1ccc(CNC(=O)[C@@H]2C[C@@H](O)CN2C(=O)[C@@H](NC(=O)CN(C)Cc2ccc(N3CCN(c4cc(-c5ccccc5O)nnc4N)CC3)cc2)C(C)(C)C)cc1 [I-462]	70 to 90	501 to 1000	< 50	> 1000	70 to 90	501 to 1000
Cc1ncsc1-c1ccc(CNC(=O)[C@@H]2C[C@@H](O)CN2C(=O)[C@@H](NC(=O)[C@H](C)N2CCC(c3cnc(N4C5CCC4CN(c4cc(-c6ccccc6O)nnc4N)C5)nc3)CC2)C(C)(C)C)cc1 [I-481]	< 50	> 1000	> 90	> 1000	–	–
Cc1ncsc1-c1ccc(CNC(=O)[C@@H]2C[C@@H](O)CN2C(=O)[C@@H](NC(=O)[C@@H](C)N2CCC(c3cnc(N4C5CCC4CN(c4cc(-c6ccccc6O)nnc4N)C5)nc3)CC2)C(C)(C)C)cc1 [I-482]	70 to 90	501 to 1000	> 90	> 1000	–	–
Cc1ncsc1-c1ccc(CNC(=O)[C@@H]2C[C@@H](O)CN2C(=O)[C@@H](NC(=O)C2CCC(N3CCC(n4cc(-c5cc(-c6ccccc6O)nnc5N)cn4)CC3)CC2)C(C)(C)C)cc1 (stereo partly shown) [I-483]	70 to 90	100 to 500	< 50	> 1000	–	–
Cc1ncsc1-c1ccc(CNC(=O)[C@@H]2C[C@@H](N)CN2C(=O)[C@@H](NC(=O)CCCNCc2ccc(C#Cc3cc(NC(=O)Nc4cc(F)ncc4CO)ccn3)cc2)C(C)(C)C)cc1 [I-492]	< 50	> 1000	< 50	> 1000	–	–
Cc1ncsc1-c1ccc(CNC(=O)[C@@H]2C[C@@H](O)CN2C(=O)[C@@H](NC(=O)CN(C)CC#Cc2cnc(N3C4CCC3CN(c3cc(-c5ccccc5O)nnc3N)C4)nc2)C(C)(C)C)cc1 [I-495]	70 to 90	100 to 500	> 90	< 100	70 to 90	100 to 500
Cc1ncsc1-c1ccc(CNC(=O)[C@@H]2C[C@@H](O)CN2C(=O)[C@@H](NC(=O)CCN(C)CC#Cc2cnc(N3C4CCC3CN(c3cc(-c5ccccc5O)nnc3N)C4)nc2)C(C)(C)C)cc1 [I-496]	70 to 90	501 to 1000	> 90	< 100	–	–
Cc1ncsc1-c1ccc(CNC(=O)[C@@H]2C[C@@H](O)CN2C(=O)[C@@H](NC(=O)CC2CCC(c3cnc(N4C5CCC4CN(c4cc(-c6ccccc6O)nnc4N)C5)nc3)CC2)C(C)(C)C)cc1 (stereo partly shown) [I-502]	> 90	< 100	> 90	< 100	–	–
Cc1ncsc1-c1ccc(CNC(=O)[C@@H]2C[C@@H](O)CN2C(=O)[C@@H](NC(=O)C2CCC(CCCCCN3CCC(Cn4cc(-c5cc(-c6ccccc6O)nnc5N)cn4)CC3)CC2)C(C)(C)C)cc1 (stereo partly shown) [I-504]	> 90	100 to 500	> 90	100 to 500	–	–
